Data reported in patent US20210196681A1, “SELECTIVE PRESENILIN-2 GAMMA-SECRETASE INHIBITORS” (UNIVERSITEIT MAASTRICHT, priority 2018, published 2021).

Key:
[1] = system: oncogenic mutant Notch1 (ΔEGF-Notch1-L1594P-MYC) activity
Experimental: Cells transduced with ΔEGF-Notch1-L1594P construct were maintained with 1 μg/ml of puromycin. pcDNA3 hNotch1 full-length construct, encoding an N terminal FLAG-tag, followed by the ectodomains and the transmembrane domains of Notch1 fused to the Gal4 DNA binding domain and the transcriptional activation domain of Notch1 was used.
Firefly luciferase encoding reporter plasmids containing synthetic CSL binding sites (pGL4.24-12xCSL) was used to monitor Notch activity, using pGL4.74 TK-hRL (Promega) as transfection control. […] A CMV driven Firefly luciferase-GFP construct was used as transfection control. Transfections were performed using Fugene HD transfection reagent (Promega). […]
1 μg of the primary reporter was used to record the effect of specific stimuli and 0.1 μg of the control reporter for normalization. […] Cells were washed, lysed and luciferase was measured, as described by manufacturer (dual-glo luciferase reporter assay system Promega) on a Fluostar Omega plate reader (BMG Labtech) For Gal4-luciferase assay, various concentrations of the Notch receptor plasmids were transfected and complemented with empty vector. […] For Gaussia-Luc assay, medium was collected at different time points to monitor overtime 12xCSL activation and measured with the BioLux® Gaussia Luciferase Assay Kit according to manufacturer's instructions (NEB). All values are expressed as relative light units (RLU).

Presenilin 2 (Psen2) = target: T1, Presenilin 2 (Psen2) (Homo sapiens, UniProt P49810); test: Presenilin specific luciferase/cleavage reporter assay in PS1/2 DKO mEF reconstituted with Presenilin 2; assay type: cell-based; conditions: Psen2 reconstituted cells, compared to cleavage inhibition of the same compound for Psen1; FIG. 4
T1 construct: expressed in transfected cells; host or cells: PS1/2 DKO mouse embryonic fibroblasts (mEF) reconstituted with Presenilin 2
Experimental: Immunoblot on cell lysates of PS1/2 DKO cells, and PS1/2 DKO reconstituted with either Presenilin 1 or Presenilin 2 were provided. Blots were probed with antibodies for nicastrin, Presenilin 1 (C-terminal fragment), Presenilin 2 (C-terminal fragment), and β-actin (loading control) to verify the cell construct used for later experiments. Double knock out of PSEN1 and PSEN2 and reconstitution were successful.
Cells were plated 24 hours prior to transfection in 6 wells plates (200.000 cells/well in 2 mL). Cells were transfected using linear polyethylenimin (P-PEI) and DMEM/f12. 2.3 μg Firefly luciferase reporter plasmids containing synthetic Gal4-binding sites (5xUAS FR-luc) were used per 6 well, as well as 150 ng herpes thymidine kinase-driven Renilla luciferase (here serving as a housekeeping gene, and thus normalizing yardstick) and 50 ng Histone-2B (H2B)-GFP (here serving as a control for transfection success). […] 24 h after transfection, […] were washed with PBS, lysed and measured following manufacturer's directions for the Dual Luciferase Reporter (DLRTM) Assay system (Promega, The Netherlands). Analysis was carried out using the FLUOstar microplate reader (BMG Labtech, Germany). […]

T1 sequence (P49810 1-297 limits assumed): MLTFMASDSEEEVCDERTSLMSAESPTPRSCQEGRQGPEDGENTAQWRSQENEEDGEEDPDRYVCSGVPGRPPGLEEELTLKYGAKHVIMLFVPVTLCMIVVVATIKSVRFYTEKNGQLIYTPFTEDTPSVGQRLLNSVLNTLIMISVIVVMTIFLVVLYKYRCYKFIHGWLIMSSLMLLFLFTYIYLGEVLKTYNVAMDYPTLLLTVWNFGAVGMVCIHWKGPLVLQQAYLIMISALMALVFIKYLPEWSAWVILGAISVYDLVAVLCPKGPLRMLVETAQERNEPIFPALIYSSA
T1 sequence (P49810 298-448 limits assumed): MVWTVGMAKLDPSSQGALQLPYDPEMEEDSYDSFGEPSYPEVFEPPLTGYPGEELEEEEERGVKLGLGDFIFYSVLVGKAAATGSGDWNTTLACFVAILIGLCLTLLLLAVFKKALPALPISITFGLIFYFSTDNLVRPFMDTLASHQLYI
T1 sequence (P57716 34-708 partner limits assumed): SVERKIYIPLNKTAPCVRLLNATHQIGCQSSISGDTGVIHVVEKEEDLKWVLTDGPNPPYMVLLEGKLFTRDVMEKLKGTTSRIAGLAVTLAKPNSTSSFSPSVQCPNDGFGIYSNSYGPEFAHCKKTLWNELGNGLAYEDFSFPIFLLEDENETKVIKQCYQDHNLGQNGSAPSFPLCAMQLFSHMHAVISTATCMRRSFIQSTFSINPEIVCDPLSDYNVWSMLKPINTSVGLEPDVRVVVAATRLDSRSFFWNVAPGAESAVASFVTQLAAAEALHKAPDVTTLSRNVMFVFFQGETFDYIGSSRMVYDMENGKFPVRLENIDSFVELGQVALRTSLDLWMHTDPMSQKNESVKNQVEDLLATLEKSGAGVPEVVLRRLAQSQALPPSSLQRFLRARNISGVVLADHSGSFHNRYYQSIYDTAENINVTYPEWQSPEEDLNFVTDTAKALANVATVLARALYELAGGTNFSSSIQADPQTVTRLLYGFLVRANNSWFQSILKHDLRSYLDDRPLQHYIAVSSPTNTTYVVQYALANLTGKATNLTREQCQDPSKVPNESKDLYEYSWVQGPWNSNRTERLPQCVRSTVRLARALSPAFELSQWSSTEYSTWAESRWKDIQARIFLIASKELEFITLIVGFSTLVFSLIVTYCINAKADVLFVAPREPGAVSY
T1 sequence (Q8BVF7 whole entry partner): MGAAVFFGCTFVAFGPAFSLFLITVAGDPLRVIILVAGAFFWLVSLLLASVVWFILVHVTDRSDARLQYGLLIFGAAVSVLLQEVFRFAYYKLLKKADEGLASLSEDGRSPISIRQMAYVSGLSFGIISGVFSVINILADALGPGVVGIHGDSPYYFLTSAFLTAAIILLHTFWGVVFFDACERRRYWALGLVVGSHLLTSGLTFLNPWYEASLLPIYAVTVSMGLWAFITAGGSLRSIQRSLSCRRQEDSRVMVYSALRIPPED
T1 sequence (Q9CQR7 whole entry partner): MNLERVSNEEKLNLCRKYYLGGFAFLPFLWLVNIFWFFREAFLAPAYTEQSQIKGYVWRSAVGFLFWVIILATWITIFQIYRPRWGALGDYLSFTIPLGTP

| Structure (SMILES) | Inhibition of mutant Notch1 transcriptional activity by CQ [1] | Cleavage inhibition (Psen2 specificity) (Presenilin 2 (Psen2)) |
| --- | --- | --- |
| CCN(CC)CCCC(C)Nc1ccnc2cc(Cl)ccc12 (centres unmarked) [CQ, Chloroquine] | most strongly inhibited |  |
| CCC[C@H](NC(=O)[C@@H](O)c1cc(F)cc(F)c1)C(=O)Nc1cn(C(C)(C)CN(C)C)cn1 [SN262, (S)-2-((S)-2-(3,5-difluorophenyl)-2-hydroxyacetamido)-N-(1-(1-(dimethylamino)-2-methylpropan-2-yl)-1H-imidazol-4-yl)pentanamide] |  | high percentage of cleavage inhibition |
